Series [1] has as its system human iPS-derived cardiac progenitor cells (CPCs). The series is described as follows: CPC proliferation assay (nuclear count). Format: cell-based. To be noted: iPSC-derived CPC proliferation, 10-point concentration response, read-out: CPC pEC50 (converted).
Series [2] shares this test system. The experiment in a line: CPC proliferation assay (nuclear count). The class given is cell-based. How it is done:
(§1) The CPC proliferation assay including image and data analysis was performed as previously described.14 Cardiac progenitor marker antibodies are listed in Table S3.
A library of 10 000 compounds was screened in singlicate at three concentrations (0.1, 1.0, and 10 μM) in the CPC proliferation assay. Each plate contained neutral controls, 0.1% DMSO and maximum controls, 100 ng/mL human basic fibroblast growth factor (FGF; Invitrogen, ThermoFisher Scientific, Waltham, Massachusetts). The data were analyzed using the Genedata Screener software (Genedata, Inc, Basel, Switzerland). […] Results were calculated using the following calculation method: compound % effect = 100 × [(X − min)/(max − min)], where X represents a normalized value for the compound based on the neutral and maximum controls.
The library was screened in three‐point concentration response (CR) at 0.1, 1.0, and 10 μM measuring proliferation of human induced pluripotent stem (iPS)‐derived CPCs with nuclear count, as measured by Hoechst staining, as the primary endpoint.

The target of series [3] is T1, RARA (alpha) ligand binding domain (Homo sapiens, UniProt P10276).
T1 sequence (P10276 183-417 limits assumed): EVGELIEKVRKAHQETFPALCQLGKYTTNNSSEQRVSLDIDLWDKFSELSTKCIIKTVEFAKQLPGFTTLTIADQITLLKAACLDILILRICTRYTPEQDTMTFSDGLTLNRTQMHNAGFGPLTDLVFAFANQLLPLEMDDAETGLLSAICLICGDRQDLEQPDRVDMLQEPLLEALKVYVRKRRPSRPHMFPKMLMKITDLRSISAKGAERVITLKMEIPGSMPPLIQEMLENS
The experiment in a line: RAR LBD-SRC1-2 coactivator peptide recruitment assay, agonist format, RARA. The class given is biochemical. To be noted: for EC50: read-out: RARα pEC50 (converted). The procedure:
(§2) RAR ligand binding domain (LBD)‐SRC1‐2 coactivator peptide (NCOA1_677‐700 biotinylated) recruitment assays were established for the three RAR isotypes RARA (alpha), RARB (beta), and RARG (gamma) to determine relative potencies. […] A total of 0.4 μL of a fixed concentration range of test ligands dissolved in dimethyl sulphoxide (DMSO) was added to assay plates using an acoustic liquid dispenser. […] The raw data were transformed to % effect using the equation: compound % effect = 100 × [(X − min)/(max − min)], where X represents the effect in the presence of test compound and max and min are the effects in presence of the maximum and minimum controls, respectively.
(§3) The data were plotted to generate concentration‐response profiles and the concentration‐response curves were fit to the data using the four‐parameter logistic smart fit method in the Genedata Screener software (Genedata, Inc).

Series [4] addresses T2, RARG (gamma) ligand binding domain (Homo sapiens, UniProt P13631).
T2 sequence (P13631 185-419 limits assumed): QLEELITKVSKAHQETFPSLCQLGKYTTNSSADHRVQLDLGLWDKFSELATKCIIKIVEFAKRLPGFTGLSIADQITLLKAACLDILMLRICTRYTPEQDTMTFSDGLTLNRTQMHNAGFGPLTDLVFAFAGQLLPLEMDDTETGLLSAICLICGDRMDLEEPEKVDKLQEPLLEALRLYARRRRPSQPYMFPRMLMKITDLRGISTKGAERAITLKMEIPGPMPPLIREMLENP
The series is described as follows: RAR LBD-SRC1-2 coactivator peptide recruitment assay, agonist format, RARG. The class given is biochemical. To be noted: for EC50: read-out: RARγ pEC50 (converted). The procedure: as §2, §3

The target in series [5] is T3, RARB (beta) ligand binding domain (Homo sapiens, UniProt P10826).
T3 sequence (P10826 183-417 limits assumed): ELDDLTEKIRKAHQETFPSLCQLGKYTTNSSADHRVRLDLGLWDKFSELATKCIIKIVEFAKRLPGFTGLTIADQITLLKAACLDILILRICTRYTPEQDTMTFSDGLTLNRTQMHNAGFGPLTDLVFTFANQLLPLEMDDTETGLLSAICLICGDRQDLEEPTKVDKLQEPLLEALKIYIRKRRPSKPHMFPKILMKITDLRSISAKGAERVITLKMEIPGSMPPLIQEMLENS
The series is described as follows: RAR LBD-SRC1-2 coactivator peptide recruitment assay, agonist format, RARB. The class given is biochemical. To be noted: for EC50: read-out: RARβ pEC50 (converted). How it is done:
as §2, §3

Series [6] deals with T1, RARA (alpha) ligand binding domain. The series is described as follows: RAR coactivator peptide recruitment assay, antagonist format, RARA. The class given is biochemical. To be noted: for IC50: read-out: RARα pIC50 (converted). How it is done:
as §2, §3

Series [7] deals with T2, RARG (gamma) ligand binding domain. The series is described as follows: RAR coactivator peptide recruitment assay, antagonist format, RARG. Format: biochemical. To be noted: for IC50: 10 nM R-667, read-out: RARγ pIC50 (converted). The procedure:
as §2, §3

Series [8] deals with T3, RARB (beta) ligand binding domain. The experiment in a line: RAR coactivator peptide recruitment assay, antagonist format, RARB. Format: biochemical. To be noted: for IC50: read-out: RARβ pIC50 (converted). How it is done:
as §2, §3

Series [9] concerns iPS-derived CPCs. To be noted: absence of RAR agonist.
Description: Cells were fixed and nuclei stained on day 4 postplating and 3 days postcompound addition. […] The data represent the mean of two independent experiments each conducted in quadruplicate; error bars indicate SEM. […] The data for CPCs and CFs are obtained from two independent RNA preparations from each cell type
Series [10] has as its system HuES6 hPSC-derived cardiac progenitors. The experiment in a line: HuES6-derived cardiac progenitors replated on day 5: cell number, RT-qPCR, immunocytochemistry. Format: cell-based, human. To be noted: for terminal cardiac differentiation, in words / expression of cardiac progenitor markers vs untreated: 1 μM, day-5 replated cells, 4 days; for expression of cardiac progenitor markers vs untreated: with the exception of ISL1; for effect on cell proliferation / cell numbers, in words: 1.0 μM, day-5 replated progenitors, 4 days of exposure. The procedure: Insulin and signaling agonists were omitted after 1 day. On days 2‐3, the nascent mesodermal cells were specified to the cardiac lineage using 0.2 μM C‐59 (R&D Tocris) supplementation. Culture medium was replaced daily.
Basal cardiac progenitor medium was composed of DMEM/F12 (ThermoFisher Scientific), insulin/transferrin/selenium supplement, 0.1% human serum albumin (Biological Industries Inc, Cromwell, Connecticut), 1× chemically defined lipids (ThermoFisher Scientific), and antibiotics. RAR agonists (1 μM) were added from the day of passaging the cells. Samples were harvested and monitored after 4 days of treatment.
Cell numbers per well were quantified following single‐cell dissociation with Accutase and using standard Neubauer counting chambers. RT‐qPCR and immunocytochemistry were performed according to standard procedures. RPL37A served as housekeeping gene for normalization.
(Real-time PCR tracks product formation cycle by cycle.)

The test system of series [11] is iPS-derived CPCs. The experiment in a line: Cardiac progenitor marker antibody staining of treated CPCs. The class given is cell-based, human. To be noted: 40 nM, 3 days. The procedure: as §1
A key requirement of the screen was that the expanded CPCs must retain their progenitor phenotype.
Figure 2 Cardiac progenitor cells (CPCs) retain progenitor markers after retinoic acid receptor agonist treatment. […] Larger images are representative merged images of Hoechst nuclear stain in blue and immunofluorescence of the indicated progenitor marker in green. Insets show the progenitor marker staining in gray scale at 3.3‐fold higher magnification. Scale bars: 50 μm

For a further series, the system named is RAR. The experiment in a line: RAR coactivator recruitment assay (isotypes not separated). Format: biochemical. How it is done:
as §2, §3

Entries after “also recorded” stand apart in the source; their conditions may differ.

Turning to `CC1=C(/C=C/C(C)=C\C=C\C(C)=C\C(=O)O)C(C)(C)CCC1` [9‐cis‐retinoic acid], the EC50 in [1] is more than 10 µM. In addition, the “CPC proliferation, result in words” value in [2] is “inactive”.
Take `CC1(C)CCC(C)(C)c2cc(C(=O)Nc3ccc(C(=O)O)c(F)c3)ccc21` [AGN 193312]: the EC50 in [1] was 0.00794 µM. In addition, in [3], the “top effect (% of maximum control)” value is on record as 159% and the EC50 is 0.00398 µM. Also, the “CPC proliferation, result in words” value in series [2] was “EC50 values in the low nanomolar range”. For the same molecule, in series [4], the “RARγ pEC50 (% top effect): % top effect” value worked out at 88% and the EC50 is 0.1 µM. For the same molecule, in series [5], the “maximal effect (% top effect)” value is on record as 100% and the EC50 was 0.01 µM.
`Cc1ccc(C2=CC(C)(C)Oc3c(Br)cc(C(=O)Nc4ccc(C(=O)O)c(F)c4)cc32)cc1` [AGN 194301]: in series [6] (antagonist format, 10 nM ATRA), the “RARα pIC50 (% top effect): % top effect” value is 108%. Moreover, the IC50 in series [6] was 0.00251 µM; in series [7] it was 0.02 µM; in series [8] it was 0.00126 µM. Further, the EC50 in series [1] is more than 10 µM; in series [3], more than 20 µM; in series [4], more than 20 µM; in series [5] it was more than 20 µM. In addition, the “RARγ pIC50 (% top effect): % top effect” value in series [7] (10 nM R-667) was 106%. Further, in series [8] (antagonist format, 10 nM TTNPB), the “RARβ pIC50 (% top effect): % top effect” value is reported as 105%. Besides, the “effect on CPC proliferation of antagonist alone” value in the series with iPS-derived CPCs [9] is given as “did not proliferate the cells; also recorded: no effect on proliferation”. The “toxicity to CPCs” value in the series on iPS-derived CPCs [9] was “no signs of toxicity”.
For the molecule `CC1(C)CCC(C)(C)c2cc(NC(=O)c3ccc(C(=O)O)cc3)ccc21` [AM80], in series [10], the “terminal cardiac differentiation, in words” value was “pronounced inhibition of terminal cardiac differentiation”; the “expression of cardiac progenitor markers vs untreated” value (“expression … vs untreated” for short) is “enhanced the expression of cardiac progenitor markers”; the “effect on cell proliferation / cell numbers, in words” value is on record as “strong positive effects on cell proliferation”. For the same molecule, the EC50 in series [1] was 0.00794 µM. Further, in series [2], the “CPC proliferation, result in words” value was “EC50 values in the low nanomolar range”. In addition, the “RARγ pEC50 (% top effect): % top effect” value in [4] came to 119%. Further, in the series on iPS-derived CPCs [11], the “expression of cardiac progenitor markers Nkx2.5, Islet1, Gata4, PDGFRα after treatment” value is given as “retain expression”. Further, the “maximal effect (% top effect)” value in [5] amounted to 149%.
`Cc1cc2c(cc1-c1cc(/C=C/C(=O)O)ccc1O)C(C)(C)CCC2(C)C` [CD 3254]: the IC50 in series [6], in series [7] and in [8] was more than 20 µM throughout. Also, the EC50 in series [1] was more than 10 µM; in [3], more than 20 µM; in [4] it was more than 20 µM; in [5], more than 20 µM. The “CPC proliferation, result in words” value in series [2] is “inactive”.
In the case of `CC1(C)CCC(C)(C)c2cc(C#Cc3ccc(C(=O)O)cc3)ccc21` [EC 23], in series [10], the “terminal cardiac differentiation, in words” value is recorded as “pronounced inhibition of terminal cardiac differentiation”; the “expression … vs untreated” value is reported as “enhanced the expression of cardiac progenitor markers”; the “effect on cell proliferation / cell numbers, in words” value is reported as “strong positive effects on cell proliferation”. The EC50 in series [1] was 0.00126 µM. For the same molecule, in series [2], the “CPC proliferation, result in words” value was “EC50 values in the low nanomolar range”.
On to `CC1=C(/C=C/C(C)=C/C=C/C(C)=C/CO)C(C)(C)CCC1` [Retinol], for which the IC50 in [6], in series [7] and in series [8] was more than 20 µM in each case. Also, the EC50 in [1] was more than 10 µM; in series [3], more than 20 µM; in series [4] it was more than 20 µM; in series [5], more than 20 µM. For the same molecule, in series [2], the “CPC proliferation, result in words” value is on record as “no effect”. Further, the “activity in RAR coactivator recruitment assay, in words” value in the series on RAR was “inactive”.
As for `CC1(C)CCC(C)(C)c2cc(C3(c4ccc(C(=O)O)cc4)OCCO3)ccc21` [SR 11237], the IC50 in [6] and in series [8] was more than 20 µM throughout. The EC50 in series [1] is more than 10 µM; in [3], more than 20 µM; in series [4] it was more than 20 µM; in series [5], more than 20 µM. Also, the “CPC proliferation, result in words” value in [2] is “inactive”.
With `C/C(=C\c1ccc(C(=O)O)cc1)c1ccc2c(c1)C(C)(C)CCC2(C)C` [TTNPB], in series [10], the “terminal cardiac differentiation, in words” value was “pronounced inhibition of terminal cardiac differentiation”; the “expression … vs untreated” value is reported as “enhanced the expression of cardiac progenitor markers”; the “effect on cell proliferation / cell numbers, in words” value was “strong positive effects on cell proliferation”. Moreover, in series [1], the EC50 is 0.00316 µM. Moreover, the “CPC proliferation, result in words” value in series [2] is given as “EC50 values in the low nanomolar range”.

(Values after article PMC6954720, “Discovery of retinoic acid receptor agonists as proliferators of cardiac progenitor cells through a phenotypic screening approach” (Stem Cells Translational Medicine, 2019).)
